Assay results published in patent US4758597A, “Carenadiol and derivatives” (University Patents, Inc., priority 1987, dated 1988).

How the values were obtained:
[1] = Audiogenic seizure (AGS) test, anticonvulsant activity; format: in vivo, rat; details: rat, in vivo; ratio of ROT TD50 to AGS ED50, iv, rats; read-out: PI (protective index = ROT-TD50/AGS-ED50)
Procedure: (§1) With regard to the potential use of this family of compounds in the treatment of epilepsy, (+)-Carenadiol was evaluated in the audiogenic seizure (AGS-susceptible) rat model of eilepsy to assess its anticonvulsant activity, and the rat rotorod (ROT) paadigm was used to assess differential neurotoxicity (i.e., reflecting mainly sedation and/or incoordination), of this family of compounds.
(§2) For AGS tests, male and female, 150-225 gm, genetically epilepsy prone rats were used. For ROT tests, male and female, 150-225 gm. rats were used. CBD analogs (suspended in a vehicle of 10% polysorbate 80 and 90% distilled water) were injected intravenously and rats were tested 15 minutes later (a peak-effect time for both tests). In the AGS test, responses to sound were recorded as the presence or absence of seizure (i.e., generalized clonus or clonus and generalized flexion). In the ROT test, effects were measured as the ability or inability (i.e., neurotoxicity) of trained rats to remain on a revolving drum (rotorod) for 60 seconds.
(§3) Separate groups of 10-15 rats were used for each doses of drug tested and, typically, 3-6 doses of each analog were used for each AGS and ROT test. For appropriate dose-response data, median effective anticonvulsant (ED50) and neurotoxic (TD50) doses and regression line parameters were calculated by computer-assisted probit analysis. Subsequent calculations of 95% confidence limits (CL) and comparisons between slopes and median doses (i.e., ED50 and TD50 potency comparisons) were carried out using the method of Litchfield and Wilcoxon [J. Pharmacol Exp Ther 96:99-133(1949)].Protective indexes (PI =ROT-TD50/AGS-ED50) also were calculated.

[2] = tested on: genetically epilepsy prone rats; test: as above; format: in vivo, rat; details: for ED50: Rattus norvegicus, 0.25 h, iv, rats, tested 15 minutes after injection, 95% confidence limits printed in parentheses on the next line, read-out: AGS ED50 (median effective anticonvulsant dose)
Procedure: as §1, §2, §3

[3] = Rat rotorod (ROT) test, differential neurotoxicity; format: in vivo; details: iv, rats, tested 15 minutes after injection, 95% confidence limits printed in parentheses on the next line, read-out: ROT TD50 (median neurotoxic dose)
Procedure: as §1, §2, §3

[4] = in man; cited from earlier work
[5] = tested on: laboratory animals; details: cited from earlier work

| SMILES | selectivity ratio at 0.25 h [1] | ED50 [2] | activity among the compounds synthesized and tested ([2]; comparison in words) | TD50 at 0.25 h [3] | antidystonic activity [4] | antiepileptic efficacy [4] | cannabimimetic activity [4] | side effects [4] | activity in models that predict cannabimimetic activity [5] |
| --- | --- | --- | --- | --- | --- | --- | --- | --- | --- |
| CCCCCc1cc(O)c(C2C=C(C)CC3C2C3(C)C)c(O)c1 (single isomer, unassigned; (+)) [(+)-5a] | 5.5 | 18.1 mg/kg | the most active | 99.8 mg/kg |  |  |  |  |  |
| CCCCCCC(C)(C)c1cc(O)c(C2C=C(C)CC3C2C3(C)C)c(O)c1 (single isomer, unassigned; (+)) [(+)-5b] | 1.1 | 3.4 mg/kg |  | 3.7 mg/kg |  |  |  |  |  |
| C=C(C)[C@@H]1CCC(C)=C[C@H]1c1c(O)cc(CCCCC)cc1O [(-)-CBD, (-)-Cannabidiol] |  |  |  |  | possibly antidystonic activity | antiepileptic efficacy | no cannabimimetic activity | no recognized and undesired side effects | inactive |
| NC(=O)N1c2ccccc2C=Cc2ccccc21 [Carbamazepine] | 2.7 | 12.8 mg/kg |  | 33.9 mg/kg |  |  |  |  |  |
| CCC1(c2ccccc2)C(=O)NC(=O)NC1=O [Phenobarbital] | 2.7 | 10.8 mg/kg |  | 28.9 mg/kg |  |  |  |  |  |
| O=C1NC(=O)C(c2ccccc2)(c2ccccc2)N1 [Phenytoin] | 1.6 | 14.7 mg/kg |  | 23.9 mg/kg |  |  |  |  |  |
